In patent US8962641B2, “Pyrimidine-substituted pyrrolidine derivatives, pharmaceutical compositions and uses thereof” (Boehringer Ingelheim International GmbH, priority 2013, dated 2015):

Target: human ACC2 (Homo sapiens (Human), UniProt O00763)
Experiment: ACC2 assay (spectrophotometric 384 well assay, NADH-linked kinetic method)
Format: biochemical
Conditions: hACC2 construct lacking 128 N-terminal amino acids; coupled lactate dehydrogenase/pyruvate kinase reaction, 340 nm, 25° C.
How it was run: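 Baculovirus/insect-cell human ACC2, anion-exchange purified; ADP formation coupled to pyruvate kinase/lactate dehydrogenase, NADH loss followed at 340 nm, 25° C, 15 min. Final 200 μM NADH and acetyl-CoA, 500 uM ATP; vehicle and no-acetyl-CoA wells set 100% and 0%.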

human ACC2, sequence (O00763 129-2458): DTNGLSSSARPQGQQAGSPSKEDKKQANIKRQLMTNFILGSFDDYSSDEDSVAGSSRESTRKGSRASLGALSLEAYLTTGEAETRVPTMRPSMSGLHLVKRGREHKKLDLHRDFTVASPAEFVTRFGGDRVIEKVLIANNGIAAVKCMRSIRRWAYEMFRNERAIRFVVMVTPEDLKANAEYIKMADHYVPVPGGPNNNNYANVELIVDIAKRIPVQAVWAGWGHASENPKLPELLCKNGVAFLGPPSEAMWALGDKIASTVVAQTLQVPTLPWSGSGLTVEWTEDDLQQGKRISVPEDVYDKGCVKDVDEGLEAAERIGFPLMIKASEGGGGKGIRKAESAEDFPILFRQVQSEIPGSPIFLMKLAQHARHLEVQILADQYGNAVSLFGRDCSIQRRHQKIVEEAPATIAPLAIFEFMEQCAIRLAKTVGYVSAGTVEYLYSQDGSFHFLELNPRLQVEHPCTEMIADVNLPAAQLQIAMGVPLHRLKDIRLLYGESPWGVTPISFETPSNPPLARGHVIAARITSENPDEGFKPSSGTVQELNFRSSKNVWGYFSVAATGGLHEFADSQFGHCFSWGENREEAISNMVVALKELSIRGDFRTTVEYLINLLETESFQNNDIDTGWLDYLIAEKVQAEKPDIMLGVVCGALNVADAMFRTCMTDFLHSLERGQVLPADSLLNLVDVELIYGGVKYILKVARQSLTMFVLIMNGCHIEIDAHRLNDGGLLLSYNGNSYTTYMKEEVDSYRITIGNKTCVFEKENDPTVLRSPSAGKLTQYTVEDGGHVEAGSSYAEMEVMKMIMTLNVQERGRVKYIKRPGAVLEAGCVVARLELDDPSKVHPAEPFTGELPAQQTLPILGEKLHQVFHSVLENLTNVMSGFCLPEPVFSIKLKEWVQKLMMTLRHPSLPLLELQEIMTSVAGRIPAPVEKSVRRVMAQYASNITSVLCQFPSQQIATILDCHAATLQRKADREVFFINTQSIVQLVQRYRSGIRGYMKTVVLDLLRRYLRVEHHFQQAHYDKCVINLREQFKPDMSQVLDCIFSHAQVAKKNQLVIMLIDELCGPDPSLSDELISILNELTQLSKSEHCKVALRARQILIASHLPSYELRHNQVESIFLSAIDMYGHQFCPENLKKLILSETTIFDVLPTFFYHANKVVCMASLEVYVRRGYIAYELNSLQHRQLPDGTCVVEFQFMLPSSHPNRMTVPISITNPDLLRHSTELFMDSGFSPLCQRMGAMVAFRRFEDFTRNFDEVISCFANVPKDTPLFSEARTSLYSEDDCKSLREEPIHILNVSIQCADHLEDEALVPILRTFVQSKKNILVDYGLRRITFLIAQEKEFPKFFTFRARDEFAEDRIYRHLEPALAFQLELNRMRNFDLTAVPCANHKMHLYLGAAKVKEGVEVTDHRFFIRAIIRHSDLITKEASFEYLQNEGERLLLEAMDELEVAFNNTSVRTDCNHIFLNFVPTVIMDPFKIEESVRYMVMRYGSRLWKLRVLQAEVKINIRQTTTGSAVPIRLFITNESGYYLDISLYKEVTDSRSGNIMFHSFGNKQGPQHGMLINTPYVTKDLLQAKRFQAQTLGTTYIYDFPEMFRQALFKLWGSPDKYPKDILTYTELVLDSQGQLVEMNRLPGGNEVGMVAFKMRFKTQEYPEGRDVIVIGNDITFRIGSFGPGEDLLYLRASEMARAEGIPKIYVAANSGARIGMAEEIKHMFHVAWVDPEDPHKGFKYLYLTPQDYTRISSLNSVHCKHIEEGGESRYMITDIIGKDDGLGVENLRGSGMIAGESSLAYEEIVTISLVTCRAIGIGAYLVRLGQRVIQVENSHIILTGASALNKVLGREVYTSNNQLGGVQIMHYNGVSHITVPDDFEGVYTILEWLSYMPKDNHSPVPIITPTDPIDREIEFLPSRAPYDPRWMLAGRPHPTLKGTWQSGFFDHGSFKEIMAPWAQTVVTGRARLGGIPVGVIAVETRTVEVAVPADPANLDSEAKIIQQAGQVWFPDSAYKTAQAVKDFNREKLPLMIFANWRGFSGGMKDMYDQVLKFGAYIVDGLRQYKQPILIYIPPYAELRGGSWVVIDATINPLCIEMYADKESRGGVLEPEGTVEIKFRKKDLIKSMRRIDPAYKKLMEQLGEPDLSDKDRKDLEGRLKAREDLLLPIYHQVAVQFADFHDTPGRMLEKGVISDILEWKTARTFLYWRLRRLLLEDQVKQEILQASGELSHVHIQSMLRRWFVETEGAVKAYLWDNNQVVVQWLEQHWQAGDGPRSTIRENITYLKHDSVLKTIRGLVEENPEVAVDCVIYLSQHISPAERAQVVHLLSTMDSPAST

| IC50 [nM] | Structure (SMILES) |
| --- | --- |
| 452 | COc1cccc(N(C)c2nccc(N3CC[C@@H](Oc4ccc([C@H](C)NC(C)=O)cc4)C3)n2)c1 [Example 8.39] |
| 628 | CC(=O)N[C@@H](C)c1ccc(O[C@@H]2CCN(c3ccnc(N4CCC4)n3)C2)cc1 [Example 8.40] |
| 286 | CC(=O)N[C@@H](C)c1ccc(O[C@@H]2CCN(c3ccnc(N(C)CC4CCOC4)n3)C2)cc1 (stereo partly shown) [Example 8.41] |
| 632 | COC(CN(C)c1nccc(N2CC[C@@H](Oc3ccc([C@H](C)NC(C)=O)cc3)C2)n1)OC [Example 8.42] |
| 79 | CC(=O)N[C@@H](C)c1ccc(O[C@@H]2CCN(c3ccnc(N4CCC(F)(F)C4)n3)C2)cc1 [Example 8.43] |
| 55 | CC(=O)N[C@@H](C)c1ccc(O[C@@H]2CCN(c3ccnc(N(C)CC(F)F)n3)C2)cc1 [Example 8.44] |
| 192 | CC(=O)N[C@@H](C)c1ccc(O[C@@H]2CCN(c3ccnc(N4CC(F)(F)C4)n3)C2)cc1 [Example 8.45] |
| 89 | CC(=O)N[C@@H](C)c1ccc(O[C@@H]2CCN(c3ccnc(N(C)CC(F)(F)F)n3)C2)cc1 [Example 8.46] |
| 65 | CCCN(C)c1ncc(Cl)c(N2CC[C@@H](Oc3ccc([C@H](C)NC(C)=O)cc3)C2)n1 [Example 8.47] |
| 312 | CCCN(C)c1ncc(C)c(N2CC[C@@H](Oc3ccc([C@H](C)NC(C)=O)cc3)C2)n1 [Example 8.48] |
| 219 | COCCN(C)c1nccc(N2CC[C@@H](Oc3ccc([C@H](C)NC(C)=O)cc3)C2)n1 [Example 8.49] |
| 157 | CC(=O)N[C@@H](C)c1ccc(O[C@@H]2CCN(c3nc(N4CCCC4)ncc3Cl)C2)cc1 [Example 8.50] |
| 124 | CC(=O)N[C@@H](C)c1ccc(O[C@@H]2CCN(c3nc(N(C)C)ncc3Cl)C2)cc1 [Example 8.51] |
| 905 | CC(=O)N[C@@H](C)c1ccc(O[C@@H]2CCN(c3nc(N(C)CC4CCOC4)ncc3C)C2)cc1 (stereo partly shown) [Example 8.52] |
| 452 | CCN(C)c1ncc(C)c(N2CC[C@@H](Oc3ccc([C@H](C)NC(C)=O)cc3)C2)n1 [Example 8.53] |
| 125 | CC(=O)N[C@@H](C)c1ccc(O[C@@H]2CCN(c3nc(N(C)CC4CCOC4)ncc3Cl)C2)cc1 (stereo partly shown) [Example 8.54] |
| 987 | CCCNc1ncc(Cl)c(N2CC[C@@H](Oc3ccc([C@H](C)NC(C)=O)cc3)C2)n1 [Example 8.55] |
| 60 | CCN(C)c1ncc(Cl)c(N2CC[C@@H](Oc3ccc([C@H](C)NC(C)=O)cc3)C2)n1 [Example 8.56] |
| 1000 | CCN(C)c1ncc(Br)c(N2CC[C@@H](Oc3ccc([C@H](C)NC(C)=O)cc3)C2)n1 [Example 8.57] |
| 484 | CC(=O)N[C@@H](C)c1ccc(O[C@@H]2CCN(c3nc(N(C)C)ncc3Br)C2)cc1 [Example 8.58] |
| 425 | CC(=O)N[C@@H](C)c1ccc(O[C@@H]2CCN(c3nc(N4CCCC4)ncc3Br)C2)cc1 [Example 8.59] |
| 59 | CCN(CC)c1ncc(Cl)c(N2CC[C@@H](Oc3ccc([C@H](C)NC(C)=O)cc3)C2)n1 [Example 8.60] |
| 245 | CC(=O)N[C@@H](C)c1ccc(O[C@@H]2CCN(c3nc(N(C)CC4CCOC4)ncc3Br)C2)cc1 (stereo partly shown) [Example 8.61] |
| 184 | CCCN(C)c1ncc(Br)c(N2CC[C@@H](Oc3ccc([C@H](C)NC(C)=O)cc3)C2)n1 [Example 8.62] |

| IC50 [nM] | Structure (SMILES) |
| --- | --- |
| 71 | CC(=O)N[C@@H](C)c1ccc(O[C@@H]2CCN(c3nc(N(C)C(C)C)ncc3F)C2)cc1 [Example 8.63] |
| 745 | CC(=O)N[C@@H](C)c1ccc(O[C@@H]2CCN(c3nc(N(C)CCC#N)ncc3F)C2)cc1 [Example 8.64] |
| 80 | [2H]C([2H])([2H])N(c1ncc(F)c(N2CC[C@@H](Oc3ccc([C@H](C)NC(C)=O)cc3)C2)n1)C([2H])([2H])[2H] [Example 8.65] |
| 65 | COCCN(C)c1ncc(F)c(N2CC[C@@H](Oc3ccc([C@H](C)NC(C)=O)cc3)C2)n1 [Example 8.66] |
| 130 | CC(=O)N[C@@H](C)c1ccc(O[C@@H]2CCN(c3nc(N4CC(F)(F)C4)ncc3F)C2)cc1 [Example 8.67] |
| 50 | CC(=O)N[C@@H](C)c1ccc(O[C@@H]2CCN(c3nc(N(C)C4CC4)ncc3F)C2)cc1 [Example 8.68] |
| 102 | CC(=O)N[C@@H](C)c1ccc(O[C@@H]2CCN(c3nc(N4CCC(F)(F)C4)ncc3F)C2)cc1 [Example 8.69] |
| 59 | CC(=O)N[C@@H](C)c1ccc(O[C@@H]2CCN(c3nc(N4CCC(C)C4)ncc3F)C2)cc1 (stereo partly shown) [Example 8.70] |
| 199 | CC(=O)N[C@@H](C)c1ccc(O[C@@H]2CCN(c3ccnc(N4CCOCC4)n3)C2)cc1 [Example 8.71] |
| 167 | CCN(CCC#N)c1nccc(N2CC[C@@H](Oc3ccc([C@H](C)NC(C)=O)cc3)C2)n1 [Example 8.72] |
| 1040 | CC(=O)N[C@@H](C)c1ccc(O[C@@H]2CCN(c3ccnc(N4CC(C)(C)C4)n3)C2)cc1 [Example 8.73] |
| 115 | CC(=O)N[C@@H](C)c1ccc(O[C@@H]2CCN(c3ccnc(N4CC(F)(F)C(F)(F)C4)n3)C2)cc1 [Example 8.74] |
| 358 | CC(=O)N[C@@H](C)c1ccc(O[C@@H]2CCN(c3ccnc(N4CC5(CCC5)C4)n3)C2)cc1 [Example 8.75] |
| 155 | CC(=O)N[C@@H](C)c1ccc(O[C@@H]2CCN(c3ccnc(N4CCC5(CC5)C4)n3)C2)cc1 [Example 8.76] |
| 489 | CC(=O)N[C@@H](C)c1ccc(O[C@@H]2CCN(c3ccnc(N4CCC(C#N)C4)n3)C2)cc1 (stereo partly shown) [Example 8.77] |
| 260 | CC(=O)N[C@@H](C)c1ccc(O[C@@H]2CCN(c3ccnc(N4CCC(C)(C)C4)n3)C2)cc1 [Example 8.78] |
| 37 | CCN(CC(F)(F)F)c1nccc(N2CC[C@@H](Oc3ccc([C@H](C)NC(C)=O)cc3)C2)n1 [Example 8.79] |
| 955 | CC(=O)N[C@@H](C)c1ccc(O[C@@H]2CCN(c3nccc(N4CC5(CCC5)C4)n3)C2)cc1 [Example 8.80] |
| 970 | CC(=O)N[C@@H](C)c1ccc(O[C@@H]2CCN(c3nccc(N4CCC(C)(C)C4)n3)C2)cc1 [Example 8.81] |
| 165 | COCCN(CC(F)F)c1nccc(N2CC[C@@H](Oc3ccc([C@H](C)NC(C)=O)cc3)C2)n1 [Example 8.83] |
| 212 | CC(=O)N[C@@H](C)c1ccc(O[C@@H]2CCN(c3ccnc(N4CCOC(C)C4)n3)C2)cc1 (stereo partly shown) [Example 8.84] |
| 566 | CC(=O)N[C@@H](C)c1ccc(O[C@@H]2CCN(c3ccnc(N4C[C@@H](C)O[C@@H](C)C4)n3)C2)cc1 [Example 8.85] |
| 670 | CC(=O)N[C@@H](C)c1ccc(O[C@@H]2CCN(c3ccnc(N4CCOCC4(C)C)n3)C2)cc1 [Example 8.86] |
| 128 | CC(=O)N[C@@H](C)c1ccc(O[C@@H]2CCN(c3ccnc(N4[C@H](C)COC[C@H]4C)n3)C2)cc1 [Example 8.87] |

| IC50 [nM] | Structure (SMILES) |
| --- | --- |
| 130 | CC(=O)N[C@@H](C)c1ccc(O[C@@H]2CCN(c3ccnc(N4CCOC(C(F)(F)F)C4)n3)C2)cc1 (stereo partly shown) [Example 8.88] |
| 293 | CC(=O)N[C@@H](C)c1ccc(O[C@@H]2CCN(c3ccnc(N4CCOC(C)(C)C4)n3)C2)cc1 [Example 8.89] |
| 364 | CC(=O)N[C@@H](C)c1ccc(O[C@@H]2CCN(c3ccnc(N4[C@H](C)COC[C@@H]4C)n3)C2)cc1 [Example 8.90] |
| 105 | CC(=O)N[C@@H](C)c1ccc(O[C@@H]2CCN(c3ccnc(N4CCSCC4)n3)C2)cc1 [Example 8.91] |
| 100 | CC(=O)N[C@@H](C)c1ccc(O[C@@H]2CCN(c3ncnc(N(C)CC4CC4)c3F)C2)cc1 [Example 8.92] |
| 440 | CC(=O)N[C@@H](C)c1ccc(O[C@@H]2CCN(c3ncnc(N(C)C)c3F)C2)cc1 [Example 8.93] |
| 165 | CCN(C)c1ncnc(N2CC[C@@H](Oc3ccc([C@H](C)NC(C)=O)cc3)C2)c1F [Example 8.94] |
| 79 | CCN(CC)c1ncnc(N2CC[C@@H](Oc3ccc([C@H](C)NC(C)=O)cc3)C2)c1F [Example 8.95] |
| 265 | CC(=O)N[C@@H](C)c1ccc(O[C@@H]2CCN(c3nc(N4CCOCC4)ncc3Cl)C2)cc1 [Example 8.96] |
| 79 | C[C@H](NC(=O)c1cncs1)c1ccc(O[C@@H]2CCN(c3ccnc(N(C)CC(F)F)n3)C2)cc1 [Example 8.97] |
| 212 | C[C@H](NC(=O)c1cncs1)c1ccc(O[C@@H]2CCN(c3ccnc(N(C)CCC#N)n3)C2)cc1 [Example 8.98] |
| 120 | C[C@H](NC(=O)c1cncs1)c1ccc(O[C@@H]2CCN(c3nc(N(C)C)ncc3F)C2)cc1 [Example 8.99] |
| 180 | CCN(CC)c1ncnc(N2CC[C@@H](Oc3ccc([C@H](C)NC(C)=O)cc3)C2)c1C [Example 8.100] |
| 376 | CCN(C)c1ncnc(N2CC[C@@H](Oc3ccc([C@H](C)NC(C)=O)cc3)C2)c1C [Example 8.101] |
| 88 | CCN(C)c1ncnc(N2CC[C@@H](Oc3ccc([C@H](C)NC(C)=O)cc3)C2)c1Cl [Example 8.102] |
| 120 | CC(=O)N[C@@H](C)c1ccc(O[C@@H]2CCN(c3ncnc(N4CCCC4)c3Cl)C2)cc1 [Example 8.103] |
| 59 | CCN(CC)c1ncnc(N2CC[C@@H](Oc3ccc([C@H](C)NC(C)=O)cc3)C2)c1Cl [Example 8.104] |
| 160 | CCN(CCOC)c1nccc(N2CC[C@@H](Oc3ccc([C@H](C)NC(C)=O)cc3)C2)n1 [Example 8.106] |
| 522 | CC(=O)N[C@@H](C)c1ccc(O[C@@H]2CCN(c3ccnc(N(CCC#N)C4CC4)n3)C2)cc1 [Example 8.107] |
| 375 | CC(=O)N[C@@H](C)c1ccc(O[C@@H]2CCN(c3ccnc(N(CCC#N)C4CCCC4)n3)C2)cc1 [Example 8.108] |
| 245 | CCCN(CCC#N)c1nccc(N2CC[C@@H](Oc3ccc([C@H](C)NC(C)=O)cc3)C2)n1 [Example 8.109] |
| 234 | CC(=O)N[C@@H](C)c1ccc(O[C@@H]2CCN(c3ccnc(N(CCC#N)CC4CCCO4)n3)C2)cc1 (stereo partly shown) [Example 8.110] |
